The values that follow come from the RepoRT retention time repository (doi:10.1021/acs.analchem.2c02893).

The series can be described thus: RP, Thermo Scientific Acclaim RSLC 120 C18, 100 × 2.1 mm, 2.2 µm, 30 °C, 0.2 mL/min, estimated dead time 1.1 min; A: 90% water + 10% methanol + 0.01% formic acid + 5 mM ammonium formate, pH 3.61; B: methanol + 0.01% formic acid + 5 mM ammonium formate, pH 3.61; gradient (min/%B) 0/1 1/1 2/39 13/99.9 15/99.9 15.1/1 20.1/1. The conditions noted are these: stereoisomer not certain.
As to `CSc1ccc2c(c1)N(CCC1CCCCN1C)c1ccccc1S2` (configuration not stated) [Thioridazine], the LC retention time is 9.34 min.

Regarding `CC(NCCc1ccc(O)cc1)C(O)c1ccc(O)cc1` (configuration not stated) [Ritodrine], the LC retention time is 3.79 min. Regarding `CCOCn1c(-c2ccc(Cl)cc2)c(C#N)c(Br)c1C(F)(F)F` [Chlorfenapyr], the LC retention time is 11.8 min. For `NC(N)=NC(=O)c1nc(Cl)c(N2CCCCCC2)nc1N` [HMA], the LC retention time was 3.23 min. As for `COC(=O)Nc1cccc(OC(=O)Nc2cccc(C)c2)c1` [Phenmedipham], the LC retention time was 8.75 min.

On to `CC(C)(C)C(O)(CCc1ccc(Cl)cc1)Cn1cncn1` (configuration not stated) [Tebuconazole], for which the LC retention time is 10.9 min. For `CCc1cccc(C)c1NC(=O)CS(=O)(=O)O`, the LC retention time was 5.24 min. Take `CN(Cc1nc2c(N)nc(N)nc2[nH]c1=O)c1ccc(C(=O)NC(CCC(=O)O)C(=O)O)cc1` (configuration not stated) [7-Hydroxymethotrexat]: the LC retention time was 4.69 min.

Take `CNC(=O)C=C(C)OP(=O)(OC)OC` [Monocrotophos]: the LC retention time is 4.36 min. To `C1COC(NC(C2CC2)C2CC2)=N1` [Rilmenidine] belongs 4.4 min; to `CCCNCCOc1c(Cl)cc(Cl)cc1Cl`, 6.99 min; to `CC(C)C(O)(C(=O)OCC1=CC[N+]2([O-])CCC(O)C12)C(C)O` (configuration not stated) [Lycopsamine-N-oxide], 3.94 min. For `CCS(=O)(=O)Cc1ccccc1OC(=O)NC` [Ethiofencarb-sulfone], the LC retention time is 4.63 min. The same measure for `COc1cc(SC(C)C)c(OC)cc1CCN` [2C-T-4]: 6.69 min; for `COC(=O)C(c1ccccc1Cl)N1CCc2sccc2C1` (configuration not stated) [Clopidogrel]: 11.8 min; for `CC(C)(C)C(NC(=O)c1cn(CC2CCCCC2)c2ccccc12)C(N)=O` (configuration not stated) [ADB-CHMICA]: 11.7 min.

As to `CCN(N=O)C(C)Cc1cccc(C(F)(F)F)c1` (configuration not stated) [Fenfluramine-n-Nitroso], the LC retention time is 9.38 min. As for `CC1(C)OC2COC3(COS(N)(=O)=O)OC(C)(C)OC3C2O1` (configuration not stated) [Topiramate], the LC retention time is 6.08 min. Turning to `NC(=NN=Cc1ccc(Cl)cc1)NN=Cc1ccc(Cl)cc1` [Robenidine], the LC retention time is 10.4 min. Turning to `CCNC(C)C(=O)c1ccc2c(c1)OCO2` (configuration not stated) [Ethylone], the LC retention time is 4.04 min. To `CC12CCC3c4ccc(O)c(O)c4CCC3C1CCC2=O` (configuration not stated) belongs 8.69 min; to `COc1c(C)c2c(c(O)c1CC=C(C)CCC(=O)O)C(=O)OC2` [Mycophenolic acid], 8.79 min; to `CC1(OC(=O)C=Cc2ccccc2)CC(O)C2(O)C=COC(OC3OC(CO)C(O)C(O)C3O)C12` (configuration not stated) [Harpagoside], 8.25 min.

For the compound `CCCCn1cc(C(=O)c2cccc3ccccc23)c2c(O)cccc21` [JWH-073-M-4-OH-Ind], the LC retention time was 12 min. On to `CC1C(=O)OC2CCN3CC=C(COC(=O)C(C)(O)C1(C)O)C23` (configuration not stated) [Monocrotaline], for which the LC retention time was 2.92 min. `CCCC1C(=O)N2C(N(C)C)=Nc3ccc(C)cc3N2C1=O` (configuration not stated) [Azapropazone]: the LC retention time was 6.54 min.

`COc1ccc2c3c1OC1C(O)CCC4C(C2)N(C)CCC341` (configuration not stated) [Codeine-Dihydro]: the LC retention time is 3.36 min.

On to `CCc1c(C)[nH]c2c1C(=O)C(CN1CCOCC1)CC2` (configuration not stated) [Molindone], for which the LC retention time is 4.89 min. Turning to `NC(CO)C(=O)NNCc1ccc(O)c(O)c1O` (configuration not stated) [Benserazide], the LC retention time is 1.38 min. For the compound `CN1C2CCC1CC(OC(=O)C(CO)c1ccccc1)C2` (configuration not stated) [Atropine], the LC retention time is 4.36 min. For `COc1cc(CCNCc2ccccc2OC)c(OC)cc1I` [25I-NBoMe], the LC retention time was 8.03 min.

`Cc1ccc(NC(=O)c2ccc(CN3CCN(C)CC3)cc2)cc1Nc1nccc(-c2cccnc2)n1` [Imatinib]: the LC retention time was 6.6 min. To `CNC(=O)CSP(=O)(OC)OC` [Omethoate] belongs 3.35 min; to `CCOP(=S)(Oc1ccc(C#N)cc1)c1ccccc1` (configuration not stated) [Cyanofenphos], 10.9 min. In the case of `Cc1ccc(S(=O)(=O)NC(=O)NN2CCCCCC2)cc1` [Tolazamide], the LC retention time is 8.09 min. With `Cc1c(F)c(F)c(COC(=O)C2C(C=C(Cl)C(F)(F)F)C2(C)C)c(F)c1F.Cc1c(F)c(F)c(COC(=O)C2C(C=C(Cl)C(F)(F)F)C2(C)C)c(F)c1F` (configuration not stated) [Tefluthrin], the LC retention time is 13.4 min. To `C#CC1(O)CCC2C3CCC4=CC(=O)CCC4C3CCC21CC` (configuration not stated) [Norgestrel] belongs 10.2 min; to `C=CCC1(C(C)C#CCC)C(=O)NC(=O)N(C)C1=O` (configuration not stated) [Methohexital], 9.09 min; to `CC(C)N(C(=O)SCC(Cl)=CCl)C(C)C` [Diallate], 11.8 min. As for `CCCCc1ncc(C=C(Cc2cccs2)C(=O)O)n1Cc1ccc(C(=O)O)cc1` [Eprosartan], the LC retention time is 7.49 min. The same measure for `O=c1n(CCCN2CCN(c3cccc(Cl)c3)CC2)nc2ccccn12` [Trazodone]: 6.48 min. For the compound `CSc1ccc(C(=O)c2[nH]c(=O)[nH]c2C)cc1` [Enoximon], the LC retention time is 6.67 min. Regarding `COc1ccc2c(c1)C13CCCCC1C(C2)N(C)CC3` (configuration not stated) [Dextromethorphan], the LC retention time is 6.51 min.

Turning to `CN(C)c1ccccc1` [Dimethylanilin (N.N-)], the LC retention time is 6.26 min. Consider `CCS(=O)(=O)CCn1c([N+](=O)[O-])cnc1C` [Tinidazole], for which the LC retention time was 3.86 min.

Consider `CC(=O)Nc1ccc(S(=O)(=O)Nc2cc(C)on2)cc1` [Sulfamethoxazole-N4-Acetyl  (Impurity A)], for which the LC retention time was 5.28 min. `COP(=O)(OC)OC(=CCl)c1ccc(Cl)cc1Cl` [Dimethylvinphos]: the LC retention time is 9.86 min. As for `O=C1c2ccccc2C(=O)C1C(=O)C(c1ccccc1)c1ccccc1` [Diphacinone], the LC retention time is 8.6 min. On to `CC(C)(c1ccc(OCC2CO2)cc1)c1ccc(OCC2CO2)cc1` (configuration not stated) [Bisphenol A diglycidyl ether], for which the LC retention time is 10.8 min.

Regarding `CCOc1ccc(NC(=O)OC(C)C)cc1OCC` [Diethofencarb], the LC retention time was 9.04 min. Regarding `CCOc1ccc(C(C)(C)COCc2cccc(Oc3ccccc3)c2)cc1` [Etofenprox], the LC retention time was 14.1 min. Consider `Cc1ccsc1C=CC1=NCCCN1C` [Morantel], for which the LC retention time was 4.36 min. Consider `COP(=O)(OC)Oc1ccc([N+](=O)[O-])cc1` [Paraoxon-methyl], for which the LC retention time was 6.36 min. Consider `CC(C)N(CCC(C(N)=O)(c1ccccc1)c1ccccn1)C(C)C` (configuration not stated) [Disopyramide], for which the LC retention time was 4.74 min. Regarding `CCCCCCn1c(=O)c2c(ncn2C)n(C)c1=O` [Pentifylline], the LC retention time was 9.44 min. As to `CC(CN1CCN(CCOCCO)CC1)CN1c2ccccc2Sc2ccccc21` (configuration not stated) [Dixyrazine], the LC retention time is 9.08 min. On to `Cc1nnc2n1-c1ccc(Cl)cc1C(c1ccccc1)=NC2` [Alprazolam], for which the LC retention time is 8.36 min. `N#CC(CCc1ccc(Cl)cc1)(Cn1cncn1)c1ccccc1` (configuration not stated) [Fenbuconazole]: the LC retention time was 10.4 min. Take `Cc1nc2n(c(=O)c1CCN1CCC(c3noc4cc(F)ccc34)CC1)CCCC2` [Risperidone]: the LC retention time is 5.88 min. With `CCCN(CCC)CCc1c[nH]c2ccccc12` [DPT], the LC retention time is 5.26 min. Regarding `CC(C)NCC(O)COc1ccc(CCOCC2CC2)cc1` (configuration not stated) [Betaxolol], the LC retention time was 6.68 min. Consider `CC1=CC(=O)N2CC(=O)N(C)c3ccc(Cl)cc3C2(c2ccccc2)O1` (configuration not stated) [Ketazolam], for which the LC retention time is 9.79 min. `NC(=O)N1c2ccccc2CC(=O)c2ccccc21` [Oxcarbazepine]: the LC retention time was 6.46 min. As to `NCC(O)COc1ccc(CC(N)=O)cc1` (configuration not stated) [Atenolol-desisopropyl], the LC retention time is 2 min. On to `O=C1Nc2ccc(Cl)cc2C(C#CC2CC2)(C(F)(F)F)O1` (configuration not stated) [Efavirenz], for which the LC retention time is 10.7 min. The same measure for `CC(C)(C)c1ccc(C(=O)CCCN2CCC(OC(c3ccccc3)c3ccccc3)CC2)cc1` [Ebastine]: 10.9 min; for `COc1nc(NC(C)C)nc(NC(C)C)n1` [Prometon]: 8.86 min. Consider `Cc1ccn2nc(S(=O)(=O)Nc3c(F)cccc3F)nc2n1` [Flumetsulam], for which the LC retention time was 4.83 min. Turning to `CN1C(=O)CN=C(c2ccccc2)c2cc(Cl)ccc21` [Diazepam], the LC retention time is 9.53 min. To `CCOP(=S)(OCC)Oc1cc(-c2ccccc2)on1` [Isoxathion] belongs 11.3 min. Regarding `CCNC(C)C(=O)c1ccccc1` (configuration not stated) [Cathinone-Ethyl], the LC retention time is 3.93 min.

Take `CC1C=CC=CCCC=CC=CC=CC=CC(OC2OC(C)C(O)C(N)C2O)CC2OC(O)(CC(O)C(O)CCC(O)CC(O)CC(O)CC(=O)OC(C)C(C)C1O)CC(O)C2C(=O)O` (configuration not stated) [Nystatin]: the LC retention time was 10.3 min. Regarding `Cc1nnc2n1-c1ccc([N+](=O)[O-])cc1C(c1ccccc1Cl)=NC2` [Clonazolam], the LC retention time was 7.24 min. `O=C(O)c1c(Cl)ccc2cc(Cl)cnc12` [Quinclorac]: the LC retention time is 4.9 min. Turning to `CCOC1OC(C(=O)O)C(O)C(O)C1O` (configuration not stated) [EtG (Na)], the LC retention time was 1.52 min.

As for `CC(=O)N1CCN(c2ccc(OCC3COC(Cn4ccnc4)(c4ccc(Cl)cc4Cl)O3)cc2)CC1` (configuration not stated) [Ketoconazole], the LC retention time was 9.4 min. As for `O=c1[nH]c2ccccc2n1C1CCN(CCCC(c2ccc(F)cc2)c2ccc(F)cc2)CC1` [Pimozide], the LC retention time is 8.73 min.
